How the values were obtained:
[1] = target: BACE2 (Homo sapiens (Human), UniProt Q9Y5Z0); assay: In vitro enzymatic BACE2 FRET assay; assay type: biochemical; conditions: read-out: IC50 IP (μM) BACE2 Enzyme
Text: In Vitro Enzymatic BACE1 and BACE2 FRET (Fluorescence Resonance Energy Transfer) Assays (Enzyme Assay Data in Table 1)

[2] = target: Cathepsin D (CatD) (Homo sapiens (Human), UniProt P07339); assay: CatD assay; assay type: biochemical; conditions: read-out: IC50 IP (μM) CatD
Sequence of Cathepsin D (CatD) (P07339 65-412, species assumed): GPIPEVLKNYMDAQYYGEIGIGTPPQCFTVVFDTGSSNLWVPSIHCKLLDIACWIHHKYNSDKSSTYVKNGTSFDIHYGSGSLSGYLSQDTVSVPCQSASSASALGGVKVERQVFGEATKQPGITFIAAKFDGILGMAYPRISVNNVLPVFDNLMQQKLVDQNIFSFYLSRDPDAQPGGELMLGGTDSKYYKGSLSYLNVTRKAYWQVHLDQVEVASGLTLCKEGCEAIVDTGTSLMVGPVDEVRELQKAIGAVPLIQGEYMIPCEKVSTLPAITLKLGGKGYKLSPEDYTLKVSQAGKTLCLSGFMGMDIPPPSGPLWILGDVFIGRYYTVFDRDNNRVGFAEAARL

Sequence of BACE2 (Q9Y5Z0 63-518): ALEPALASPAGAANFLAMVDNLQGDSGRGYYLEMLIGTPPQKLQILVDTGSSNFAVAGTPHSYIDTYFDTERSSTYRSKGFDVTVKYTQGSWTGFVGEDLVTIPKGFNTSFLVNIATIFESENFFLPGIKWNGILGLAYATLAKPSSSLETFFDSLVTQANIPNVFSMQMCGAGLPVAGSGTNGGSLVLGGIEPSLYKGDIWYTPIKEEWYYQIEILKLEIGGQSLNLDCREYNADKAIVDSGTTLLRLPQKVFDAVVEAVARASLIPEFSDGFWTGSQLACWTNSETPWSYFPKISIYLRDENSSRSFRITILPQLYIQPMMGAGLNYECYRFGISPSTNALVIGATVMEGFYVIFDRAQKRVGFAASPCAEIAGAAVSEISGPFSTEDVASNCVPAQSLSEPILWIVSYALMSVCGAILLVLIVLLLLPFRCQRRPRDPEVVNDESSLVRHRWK

Q: Which results are given for `C[C@]1(c2cc(/C=C(\F)c3ccc(C#N)cn3)ccc2F)N=C(N)S[C@@]2(C(=O)NC3CCOCC3)C[C@H]21` [Example 128, (1S,5S,6S)-3-amino-5-(5-((Z)-2-(5-cyanopyridin-2-yl)-2-fluorovinyl)-2-fluorophenyl)-5-methyl-N-(tetrahydro-2H-pyran-4-yl)-2-thia-4-azabicyclo[4.1.0]hept-3-ene-1-carboxamide]?
A: IC50 [1]: 0.0892 µM; IC50 [2]: 144 µM

Q: What does the source list for `C[C@]1(c2cc(/C=C(\F)c3ccc(C#N)cn3)ccc2F)N=C(N)S[C@@]2(C(=O)N3CCN(c4ccccc4)CC3)C[C@H]21` [Example 131, 6-((Z)-2-(3-((1S,5S,6S)-3-amino-5-methyl-1-(4-phenylpiperazine-1-carbonyl)-2-thia-4-azabicyclo[4.1.0]hept-3-en-5-yl)-4-fluorophenyl)-1-fluorovinyl)nicotinonitrile]?
A: IC50 [1]: 0.015 µM; IC50 [2]: 96.9 µM

Q: `C[C@]1(c2cc(/C=C(\F)c3ccc(C#N)cn3)ccc2F)N=C(N)S[C@@]2(C(=O)N3CC4CC3CO4)C[C@H]21` (stereo partly drawn) [Example 132, 6-((Z)-2-(3-((1S,5S,6S)-3-amino-1-(2-oxa-5-azabicyclo[2.2.1]heptane-5-carbonyl)-5-methyl-2-thia-4-azabicyclo[4.1.0]hept-3-en-5-yl)-4-fluorophenyl)-1-fluorovinyl)nicotinonitrile] was tested. Which IC50 [1] did it give?
A: Its IC50 is 0.0758 µM.

Q: What about the IC50 [2] of the same compound?
A: Its IC50 is 1690 µM.

Q: With `C[C@@H]1CC[C@@H](C)N1C(=O)[C@]12C[C@H]1[C@@](C)(c1cc(/C=C(\F)c3ccc(C#N)cn3)ccc1F)N=C(N)S2` [Example 133, 6-((Z)-2-(3-((1S,5S,6S)-3-amino-1-((2R,5R)-2,5-dimethylpyrrolidine-1-carbonyl)-5-methyl-2-thia-4-azabicyclo[4.1.0]hept-3-en-5-yl)-4-fluorophenyl)-1-fluorovinyl)nicotinonitrile] as the compound, how does the IC50 [1] read?
A: Its IC50 is 0.099 µM.

Q: What about the IC50 [2] of the same compound?
A: The IC50 was 146 µM.

Q: Which IC50 [1] does the source give for `CN(C)[C@@H]1CCN(C(=O)[C@]23C[C@H]2[C@@](C)(c2cc(/C=C(\F)c4ccc(C#N)cn4)ccc2F)N=C(N)S3)C1` [Example 134, 6-((Z)-2-(3-((1S,5S,6S)-3-amino-1-((R)-3-(dimethylamino)pyrrolidine-1-carbonyl)-5-methyl-2-thia-4-azabicyclo[4.1.0]hept-3-en-5-yl)-4-fluorophenyl)-1-fluorovinyl)nicotinonitrile] here?
A: Its IC50 is 0.8 µM.

Q: What about the IC50 [2] of the same compound?
A: Its IC50 is 400 µM.

Q: Which results are given for `C[C@]1(c2cc(/C=C(\F)c3ccc(C#N)cn3)ccc2F)N=C(N)S[C@@]2(C(=O)N3CC[C@@H]4CCCC[C@H]4C3)C[C@H]21` [Example 135, 6-((Z)-2-(3-((1S,5S,6S)-3-amino-1-((4aS,8aR)-decahydroisoquinoline-2-carbonyl)-5-methyl-2-thia-4-azabicyclo[4.1.0]hept-3-en-5-yl)-4-fluorophenyl)-1-fluorovinyl)nicotinonitrile]?
A: IC50 [1]: 0.00166 µM; IC50 [2]: 5.5 µM

Q: With `CC1CC(C)CN(C(=O)[C@]23C[C@H]2[C@@](C)(c2cc(/C=C(\F)c4ccc(C#N)cn4)ccc2F)N=C(N)S3)C1` (stereo partly drawn) [Example 137, 6-((Z)-2-(3-((1S,5S,6S)-3-amino-1-(3,5-dimethylpiperidine-1-carbonyl)-5-methyl-2-thia-4-azabicyclo[4.1.0]hept-3-en-5-yl)-4-fluorophenyl)-1-fluorovinyl)nicotinonitrile] as the compound, how does the IC50 [1] read?
A: Its IC50 is 0.21 µM.

Q: What about the IC50 [2] of the same compound?
A: Its IC50 is 43.2 µM.

Q: Which IC50 [1] does the source give for `CC1CCCN1C(=O)[C@]12C[C@H]1[C@@](C)(c1cc(/C=C(\F)c3ccc(C#N)cn3)ccc1F)N=C(N)S2` (stereo partly drawn) [Example 138, 6-((Z)-2-(3-((1S,5S,6S)-3-amino-5-methyl-1-(2-methylpyrrolidine-1-carbonyl)-2-thia-4-azabicyclo[4.1.0]hept-3-en-5-yl)-4-fluorophenyl)-1-fluorovinyl)nicotinonitrile] here?
A: Its IC50 is 0.0924 µM.

Q: And the IC50 [2]?
A: The IC50 was 70.9 µM.

Q: What does the source list for `C[C@]1(c2cc(/C=C(\F)c3ccc(C#N)cn3)ccc2F)N=C(N)S[C@@]2(C(=O)N3CCC(C(F)(F)F)CC3)C[C@H]21` [Example 139, 6-((Z)-2-(3-((1S,5S,6S)-3-amino-5-methyl-1-(4-(trifluoromethyl)piperidine-1-carbonyl)-2-thia-4-azabicyclo[4.1.0]hept-3-en-5-yl)-4-fluorophenyl)-1-fluorovinyl)nicotinonitrile]?
A: IC50 [1]: 0.00257 µM; IC50 [2]: 81.5 µM

Q: For `C[C@]1(c2cc(/C=C(\F)c3ccc(C#N)cn3)ccc2F)N=C(N)S[C@@]2(C(=O)N3CCCC(c4ccccc4)C3)C[C@H]21` (stereo partly drawn) [Example 140, 6-((Z)-2-(3-((1S,5S,6S)-3-amino-5-methyl-1-(3-phenylpiperidine-1-carbonyl)-2-thia-4-azabicyclo[4.1.0]hept-3-en-5-yl)-4-fluorophenyl)-1-fluorovinyl)nicotinonitrile], which IC50 [1] is on record?
A: Its IC50 is 0.0131 µM.

Q: What about the IC50 [2] of the same compound?
A: Its IC50 is 12.8 µM.

Q: How did the IC50 [1] turn out when `C[C@]1(c2cc(/C=C(\F)c3ccc(C#N)cn3)ccc2F)N=C(N)S[C@@]2(C(=O)N3CCN(CC4CC4)CC3)C[C@H]21` [Example 141, 6-((Z)-2-(3-((1S,5S,6S)-3-amino-1-(4-(cyclopropylmethyl)piperazine-1-carbonyl)-5-methyl-2-thia-4-azabicyclo[4.1.0]hept-3-en-5-yl)-4-fluorophenyl)-1-fluorovinyl)nicotinonitrile] was run?
A: The IC50 was 0.336 µM.

Q: And the IC50 [2]?
A: Its IC50 is 400 µM.

Q: What does the source list for `C[C@]1(c2cc(/C=C(\F)c3ccc(C#N)cn3)ccc2F)N=C(N)S[C@@]2(C(=O)N3CCCC(C#N)C3)C[C@H]21` (stereo partly drawn) [Example 143, 6-((Z)-2-(3-((1S,5S,6S)-3-amino-1-(3-cyanopiperidine-1-carbonyl)-5-methyl-2-thia-4-azabicyclo[4.1.0]hept-3-en-5-yl)-4-fluorophenyl)-1-fluorovinyl)nicotinonitrile]?
A: IC50 [1]: 0.0127 µM; IC50 [2]: 152 µM

Q: With `C[C@]1(c2cc(/C=C(\F)c3ccc(C#N)cn3)ccc2F)N=C(N)S[C@@]2(C(=O)N3CCNC(=O)C3)C[C@H]21` [Example 144, 6-((Z)-2-(3-((1S,5S,6S)-3-amino-5-methyl-1-(3-oxopiperazine-1-carbonyl)-2-thia-4-azabicyclo[4.1.0]hept-3-en-5-yl)-4-fluorophenyl)-1-fluorovinyl)nicotinonitrile] as the compound, how does the IC50 [1] read?
A: Its IC50 is 0.0282 µM.

Q: And the IC50 [2]?
A: Its IC50 is 400 µM.

Q: Which results are given for `CC1CCCN(C(=O)[C@]23C[C@H]2[C@@](C)(c2cc(/C=C(\F)c4ccc(C#N)cn4)ccc2F)N=C(N)S3)C1` (stereo partly drawn) [Example 145, 6-((Z)-2-(3-((1S,5S,6S)-3-amino-5-methyl-1-(3-methylpiperidine-1-carbonyl)-2-thia-4-azabicyclo[4.1.0]hept-3-en-5-yl)-4-fluorophenyl)-1-fluorovinyl)nicotinonitrile]?
A: IC50 [1]: 0.0174 µM; IC50 [2]: 42.6 µM

Q: With `COC(=O)[C@]12C[C@H]1[C@@](C)(c1cc(/C=C(\F)c3cnc(Br)cn3)ccc1F)N=C(N)S2` [Example 148, (1S,5S,6S)-methyl 3-amino-5-(5-((Z)-2-(5-bromopyrazin-2-yl)-2-fluorovinyl)-2-fluorophenyl)-5-methyl-2-thia-4-azabicyclo[4.1.0]hept-3-ene-1-carboxylate] as the compound, how does the IC50 [1] read?
A: The IC50 was 1.03 µM.

Q: And the IC50 [2]?
A: Its IC50 is 231 µM.

Q: Which results are given for `C#CCOc1cnc(/C(F)=C/c2ccc(F)c([C@@]3(C)N=C(N)S[C@@]4(C(=O)N(C)C)C[C@H]43)c2)cn1` [Example 153, (1S,5S,6S)-3-amino-5-(2-fluoro-5-((Z)-2-fluoro-2-(5-(prop-2-yn-1-yloxy)pyrazin-2-yl)vinyl)phenyl)-N,N,5-trimethyl-2-thia-4-azabicyclo[4.1.0]hept-3-ene-1-carboxamide]?
A: IC50 [1]: 0.0518 µM; IC50 [2]: 106 µM

Reference: patent US10246429B2, “Vinyl fluoride cyclopropyl fused thiazin-2-amine compounds as beta-secretase inhibitors and methods of use” (AMGEN INC., priority 2015, dated 2019)
